The values below come from patent publication US20090291442A1, “HSPA1A AS A MARKER FOR SENSITIVITY TO KSP INHIBITORS” (SMITHKLINE BEECHAM CORPORATION, priority 2006, published 2009).

One assay deals with T1, KSP (Homo sapiens, UniProt P52732).
T1 sequence (P52732 1-1056): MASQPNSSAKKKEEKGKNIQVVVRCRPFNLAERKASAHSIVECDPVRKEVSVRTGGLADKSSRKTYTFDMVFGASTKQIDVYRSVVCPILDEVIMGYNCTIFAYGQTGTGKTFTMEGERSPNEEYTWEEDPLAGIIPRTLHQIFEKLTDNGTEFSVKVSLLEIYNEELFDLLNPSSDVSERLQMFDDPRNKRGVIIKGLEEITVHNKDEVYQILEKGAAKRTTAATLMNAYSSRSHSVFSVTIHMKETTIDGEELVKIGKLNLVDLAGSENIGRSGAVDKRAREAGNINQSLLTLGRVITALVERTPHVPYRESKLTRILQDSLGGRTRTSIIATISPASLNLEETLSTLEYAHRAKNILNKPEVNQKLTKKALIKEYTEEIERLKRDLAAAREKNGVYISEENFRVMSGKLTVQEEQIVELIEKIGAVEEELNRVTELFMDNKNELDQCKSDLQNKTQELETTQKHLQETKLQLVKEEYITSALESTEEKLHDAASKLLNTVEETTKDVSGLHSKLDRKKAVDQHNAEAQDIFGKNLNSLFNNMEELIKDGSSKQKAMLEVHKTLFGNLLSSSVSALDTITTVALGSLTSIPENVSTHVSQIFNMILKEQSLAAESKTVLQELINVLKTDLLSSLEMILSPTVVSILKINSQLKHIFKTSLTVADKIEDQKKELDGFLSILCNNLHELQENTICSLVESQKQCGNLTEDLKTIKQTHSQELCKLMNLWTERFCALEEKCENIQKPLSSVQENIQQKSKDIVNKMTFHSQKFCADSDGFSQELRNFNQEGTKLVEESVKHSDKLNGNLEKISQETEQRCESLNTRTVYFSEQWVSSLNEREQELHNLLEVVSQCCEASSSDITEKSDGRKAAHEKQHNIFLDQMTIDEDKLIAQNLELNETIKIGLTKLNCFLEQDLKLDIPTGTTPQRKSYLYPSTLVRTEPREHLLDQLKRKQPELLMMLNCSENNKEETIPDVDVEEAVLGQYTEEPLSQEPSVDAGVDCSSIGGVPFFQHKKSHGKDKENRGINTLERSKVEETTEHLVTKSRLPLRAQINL
Particulars: literature statement; cited from earlier work.

For assay [1], the system named is Wilm's tumor WT8 xenograft. The assay is described as follows: Outcome of human Wilm's tumor xenograft WT8 to KSP inhibitor. It counts as in vivo. Particulars: Wilm's tumor xenograft WT8, known outcome. The method, then:
(§1) Affymetrix® gene expression profiling was conducted to identify baseline expression patterns associated with sensitivity to the KSP inhibitor in human Wilm's tumor xenograft models. Total RNA from three distinct Wilm's tumors with known outcomes to Ispinesib mesylate (2-3 replicates) inhibition was labeled using a 5 μg protocol and hybridized to the HG-U133A Affymetrix® array. Baseline gene expression differences between tumors resistant (WT7 and WT8) and sensitive (WT10) to Ispinesib mesylate were compared. […] Validation by QPCR of the same tumors confirmed this expression pattern.
A general note: Xenograft models place foreign cells or tissue in a host animal.

The subject of assay [2] is Wilm's tumor WT10 xenograft. The assay is described as follows: Outcome of human Wilm's tumor xenograft WT10 to KSP inhibitor. Particulars: Wilm's tumor xenograft WT10, known outcome. It counts as in vivo. The method, then: as §1
For assay [3], the system named is Wilm's tumor WT7 xenograft. Nature of the assay: Outcome of human Wilm's tumor xenograft WT7 to KSP inhibitor. It is filed as in vivo. Particulars: Wilm's tumor xenograft WT7, known outcome. As to the method: as §1
Another assay concerns Colo201 (colon cancer). The assay is described as follows: Cell line sensitivity to KSP inhibitor (FACS analysis). It is filed as cell-based. Particulars: Colo201 cells. The text has this: (§2) Baseline expression of HSPA1a was validated in 4 cell lines: MX1 (breast cancer) and MV522 (lung cancer) resistant to Ispinesib mesylate and Colo201 (colon cancer) and Colo205 (colon cancer) sensitive to Ispinesib mesylate inhibition. Like the tumors, HSPA1a expression differentiated the resistant cell lines from the sensitive cell lines.
(§3) A more extensive list of preclinical cell lines compared with those presented in Example 2, including cell lines from both solid and liquid tumors, was analyzed. Again, these cell lines were previously determined to be either resistant or sensitive to Ispinesib mesylate using FACS analysis. […] Of the 22 cell lines analyzed, HSPA1a expression levels were correctly able to classify 19 cell lines as resistant or sensitive to the KSP inhibitor. The HSPA1a marker misclassified 2 cell lines Daudi and HCT116 as sensitive (due to low baseline expression in these cells) and HeLaS3 cell line as resistant (due to high baseline expression of HSPA1a in these cells).
On the technique in general: A flow cytometer gives signals particle by particle.

The subject of a further assay is MV522 (lung cancer). The assay is described as above. It counts as cell-based. The note with it: MV522 cells.
Excerpt: as §2, §3

For another assay, the system named is MX1 (breast cancer). Described as above. It is filed as cell-based. Particulars: MX1 cells.
Excerpt: as §2, §3

The subject of the next assay is Colo205 (colon cancer). Described as above. It counts as cell-based. Particulars: Colo205 cells.
Excerpt: as §2, §3

Where a name gives a salt, the structure may show the parent alone.

As to `Cc1ccc(C(=O)N(CCCN)[C@@H](c2nc3cc(Cl)ccc3c(=O)n2Cc2ccccc2)C(C)C)cc1` [Ispinesib mesylate], at KSP, the “inhibition of KSP (in words)” value was “potent and selective inhibitor of KSP”. The “tumor resistant or sensitive to the compound” value in assay [1] was “resistant”; in assay [2], “sensitive”; in assay [3], “resistant”. Further, the “cell line resistant or sensitive to the compound” value is listed as “sensitive” in the assay with Colo201 (colon cancer), “resistant” with MV522 (lung cancer), “resistant” in the assay on MX1 (breast cancer) and “sensitive” in the assay with Colo205 (colon cancer).
